Results published in patent US11890279B2, “Quinolines that modulate SERCA and their use for treating disease” (Neurodon Corporation, priority 2020, dated 2024).

Key:
APP-PS1 mice = test: Aβ deposition, thioflavin S staining; format: in vivo, mouse; conditions: 10 mg/kg ip, 4 weeks, vs saline
Protocol: Mice were transcardially perfused with ice-cold PBS (3 mL) followed by 4% paraformaldehyde (5 mL). Brains were extracted and fixed overnight in 30% sucrose-cryoprotectant solution. Coronal hippocampal sections […] thick were cut on a cryostat and collected in TBS (0.1 M Tris, 0.9% saline, pH 7.4). Thioflavin S Staining: Free-floating hippocampal sections were washed with TBS (4×3 min). The sections were soaked in 0.5% thioflavin S (in 50/50 ethyl alcohol/distilled water, Sigma-Aldrich) for 10 min, followed by 2×3 min washes with 50% ethyl alcohol. Sections were washed again with TBS (2×3 min), mounted with minimal drying, and coverslipped with anti-fade mounting medium PVA-DABCO for microscopy. Confocal images of immunolabeled tissue were obtained using 4× and 10× objective lenses on the Olympus Fluoview confocal microscope. Density of amyloid plaques was quantified by averaging the percent area staining positive (thresholded above background staining, as determined by software parameters and experimenter confirmation) within the hippocampus and cortex from 3-5 sections from each experimental animal using MetaMorph Software (Molecular Devices). There were no significant differences in the intensity of background threshold values across animal strains or treatment conditions (p>0.05). The experimenter was blind to animal strain and treatment condition. […] Mice were ˜6 months of age.

[1] = test system: CA1 pyramidal neurons of PS1/APP mice; test: Ca2+ imaging in brain slices of treated PS1/APP mice; format: in vivo, mouse; conditions: 10 mg/kg IP, 4 weeks, caffeine 10 mM, 60 sec
Excerpt: Mouse Model: PS1/APP mice (PS1M146V and APPSWE) (Howlett et al., Brain Res. 2004, 1017, 130-136) were used. Age-matched NTg controls were on the same background strain (C57bl6/J9).
Brain Slice Preparation: Mice were deeply anesthetized with halothane and rapidly decapitated. The brains were extracted rapidly and 300 or 400 μm-thick transverse hippocampal slices were cut with a vibrating microtome into ice-cold oxygenated artificial cerebrospinal fluid (aCSF) with the following composition (in mM): 125 NaCl, 2.5 KCl, 1.25 KH2PO4, 1.2 MgSO4, 2 CaCl2, 10 dextrose, and 25 NaHCO3.
Ca^2+ Imaging: Ca^2+ imaging within individual neurons was performed in brain slice preparations using a custom-made video-rate multiphoton-imaging system based on an upright Olympus BX51 microscope frame. […] Emitted fluorescence light was detected by a wide-field photomultiplier (Electron Tubes) to derive a video signal that was captured and analyzed by Video Savant 5.0 software (IO Industries). […] For clarity, results are expressed as inverse ratios so that increases in [Ca^2+] correspond to increasing ratios. The % change is calculated as [(F/ΔF)−1]×100, where F is the average resting fluorescence at baseline and ΔF is the decrease of fluorescence reflecting Ca release. Differences between drug- and saline-treated groups were assessed using two-way ANOVA and Scheffe post hoc analysis for significance (p<0.05). […]

[2] = Brain barrier penetration in mice; format: in vivo; conditions: mouse, brain/plasma, 10 mg/kg IP, 1 hr after dosing, read-out: brain/plasma ratio
Excerpt: The brains of the mice were harvested 1 hr after dosing. The brain/plasma ratio was 2.6.

CSM14.1 cells = test: ER stress cell survival assay (thapsigargin); format: cell-based; conditions: compound 2 μM; about 15 μM thapsigargin; CSM14.1 cells;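 also: survival read as CellTiter-Glo luminescence after overnight incubation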

Cc1ccc2cccc(NC(=O)c3ccc(OC(C)C)cc3)c2n1 [Compound A12, 4-Isopropoxy-N-(2-methylquinolin-8-yl)benzamide]
amyloid plaques stained with Thioflavin S (APP-PS1 mice): reduced
ER Ca^2+ signaling (RyR-Ca2+ response to caffeine) [1]: restores ER Ca^2+ signaling
Kp at 1 h [2]: 2.6

Cc1ccc2cccc(NC(=O)c3ccc(N(C)C)cc3)c2n1 [Compound C18, 4-N,N-Dimethylamino-N-(2-methylquinolin-8-yl)benzamide]
Cell Survival (CSM14.1 cells): B (B represents a value between 10% and 50%)
